Assay results reported in patent publication US9604940B2 (Chroma Therapeutics Ltd., priority 2012, dated 2017).

Assays:
CSF1R (FMS) = biological target: T1, CSF1R (FMS) (Homo sapiens, UniProt P07333); experiment: CSF1R (FMS) kinase activity, Z'-LYTE biochemical assay (Invitrogen); details: ATP at or close to Km, 60 minute reaction at room temperature, read-out: Inhibitor activity versus CSF-1
T1 construct: purchased Invitrogen (Paisley, UK)
Method: CSF1R (FMS) Kinase Activity
The ability of compounds to inhibit CSF1R (FMS) kinase activity was measured in an assay performed by Invitrogen (Paisley, UK). The Z′-LYTE™ biochemical assay employs a fluorescence-based, coupled-enzyme format and is based on the differential sensitivity of phosphorylated and non-phosphorylated peptides to proteolytic cleavage. The peptide substrate is labelled with two fluorophores—one at each end—that make up a FRET pair. In the primary reaction, the kinase transfers the gamma-phosphate of ATP to a single […] residue in a synthetic FRET-peptide. In the secondary reaction, a site-specific protease recognizes and cleaves non-phosphorylated FRET-peptides. Phosphorylation of FRET-peptides suppresses cleavage by the Development Reagent. Cleavage disrupts FRET between the donor (i.e. coumarin) and acceptor (i.e. fluorescein) fluorophores on the FRET-peptide, whereas uncleaved, phosphorylated FRET-peptides maintain FRET. A […] method, which calculates the ratio (the Emission Ratio) of donor emission to acceptor emission after excitation of the donor fluorophore at 400 nm, is used to quantitate reaction progress.
The final 10 μL Kinase Reaction consists of 0.12-12.3 ng CSF1R (FMS), 2 μM Tyr 01 Peptide and ATP in 50 mM HEPES pH 7.5, 0.01% BRIJ-35, 10 mM MgCl2, 1 mM EGTA. The assay is performed at an ATP concentration at, or close to, the Km. After the 60 minute Kinase Reaction incubation at room temperature, 5 μL of a 1:256 dilution of Development Reagent is added. The assay plate is incubated for a further 60 minutes at room temperature and read on a fluorescence plate reader.
Duplicate data points are generated from a ⅓ log dilution series of a stock solution of test compound in DMSO. Nine dilutions steps are made from a top concentration of 10 mM, and a ‘no compound’ blank is included. Data is collected and analysed using XLfit software from IDBS. The dose response curve is curve fitted to model number 205 (sigmoidal dose-response model). From the curve generated, the concentration giving 50% inhibition is determined and reported.

MCP-1 = experiment: MCSF-stimulation of human whole blood, MCP-1 levels by sandwich ELISA; format: cell-based; details: inhibitor 2 hours before MCSF 50 ng/ml, 22 hrs, MCP-1 in cell-free supernatants, read-out: Inhibitor activity versus MCP-1
Method: Macrophage Colony-Stimulating Factor (MCSF)-Stimulation of Human Whole Blood
Whole blood was taken by venous puncture using heparinised vacutainers (Becton Dickinson) and diluted in an equal volume of RPMI1640 tissue culture media (Sigma). 100 μl was plated in V-bottomed 96 well tissue culture treated plates. 2 hours after the addition of the inhibitor in 100 μl of RPMI1640 media, the blood was stimulated with MCSF (Peprotech: #300-25-10 uG) at a final concentration of 50 ng/ml and incubated at 37° C. in 5% CO2 for 22 hrs. MCP-1 levels were measured from cell-free supernatants by sandwich ELISA developed from MCP-1/CCL2 Duoset (R&D Systems #DY279). Additional reagents required for ELISA were purchased from Sigma, (BSA: A3059, 10×PBS: D1408, Tween20: P5927) R&D Systems, (colour reagent: #DY999 and stop solution: #DY994) and Costar (96-well EIA plates: #2592). Assays were carried out following the manufacturer's instructions with the following modifications: Cell-free supernatants were diluted 30:70 in reagent diluent before assay. All incubations except capture antibody were carried out with shaking at 550 rpm. 3 washes were carried out between steps, and incubation times were blocking 1.5 hr, sample/standard and detection antibody incubations 2 hr, HRP incubation 30 min, colour development 20 min. • IC50 values were allocated to one of five ranges as follows: • Range A: IC50<100 nM • Range B: 100 nM<IC50<300 nM • Range C: 300 nM<1050<1000 nM • Range D: 1000 nM<IC50<5000 nM • Range E: IC50>5000 nM • NT=not tested

T1 sequence (P07333 20-972): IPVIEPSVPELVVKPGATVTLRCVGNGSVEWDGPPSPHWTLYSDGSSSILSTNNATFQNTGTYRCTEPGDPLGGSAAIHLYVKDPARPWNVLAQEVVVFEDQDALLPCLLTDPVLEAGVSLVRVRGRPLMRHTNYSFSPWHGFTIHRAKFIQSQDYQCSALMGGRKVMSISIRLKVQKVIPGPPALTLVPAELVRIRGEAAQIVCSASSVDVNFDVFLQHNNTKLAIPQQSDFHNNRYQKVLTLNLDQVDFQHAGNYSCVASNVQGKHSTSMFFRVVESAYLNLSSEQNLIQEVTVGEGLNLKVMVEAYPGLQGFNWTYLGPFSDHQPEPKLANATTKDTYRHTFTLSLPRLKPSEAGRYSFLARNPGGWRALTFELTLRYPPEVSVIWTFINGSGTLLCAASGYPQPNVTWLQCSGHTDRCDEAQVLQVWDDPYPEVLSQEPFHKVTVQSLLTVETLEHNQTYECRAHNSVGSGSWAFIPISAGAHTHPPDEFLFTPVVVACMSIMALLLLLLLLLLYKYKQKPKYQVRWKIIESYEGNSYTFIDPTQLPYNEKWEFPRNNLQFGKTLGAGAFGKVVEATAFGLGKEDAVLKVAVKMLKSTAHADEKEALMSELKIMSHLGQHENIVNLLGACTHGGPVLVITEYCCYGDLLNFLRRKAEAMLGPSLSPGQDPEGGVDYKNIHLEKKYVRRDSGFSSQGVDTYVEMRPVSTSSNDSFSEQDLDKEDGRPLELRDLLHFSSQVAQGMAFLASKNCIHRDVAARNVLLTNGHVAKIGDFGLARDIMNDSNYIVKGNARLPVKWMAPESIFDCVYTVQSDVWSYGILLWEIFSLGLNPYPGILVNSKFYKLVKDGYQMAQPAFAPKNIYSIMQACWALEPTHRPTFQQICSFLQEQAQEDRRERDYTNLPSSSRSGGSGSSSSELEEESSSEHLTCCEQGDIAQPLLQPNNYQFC

IC50 (CSF1R (FMS)) [nM]	IC50 (MCP-1) [nM]	Structure (SMILES)
> 5000	> 5000	CC(C)C[C@H](NCCn1cc(-c2cnc(N)c(NCc3c(Cl)cccc3Cl)n2)cn1)C(=O)OC(C)(C)C [Example 58, tert-Butyl N-[2-(4-{5-amino-6-[(2,6-dichlorobenzyl)amino]pyrazin-2-yl}-1H-pyrazol-1-yl)ethyl]-L-leucinate]
100 to 300	300 to 1000	CC(C)(C)OC(=O)[C@H]1CC(NCc2ccc(-c3cnc(N)c(NCc4c(Cl)cccc4Cl)n3)cc2Cl)CCN1 (stereo partly drawn) [Example 25, tert-Butyl (2R)-4-[(4-{5-amino-6-[(2,6-dichlorobenzyl)amino]pyrazin-2-yl}-2-chlorobenzyl)amino]piperidine-2-carboxylate]
1000 to 5000	1000 to 5000	CC(C)C[C@H](NCCn1cc(-c2cnc(N)c(NCc3c(Cl)cccc3Cl)n2)cn1)C(=O)OC1CCCC1 [Example 57, Cyclopentyl N-[2-(4-{5-amino-6-[(2,6-dichlorobenzyl)amino]pyrazin-2-yl}-1H-pyrazol-1-yl)ethyl]-L-leucinate]
100 to 300	< 100	CC(=O)N(Cc1ccc(-c2cnc(N)c(NCc3c(Cl)cccc3Cl)n2)cc1)C1CCN[C@@H](C(=O)OC2CCCC2)C1 (stereo partly drawn) [Example 31, Cyclopentyl (2R)-4-[acetyl(4-{5-amino-6-[(2,6-dichlorobenzyl)amino]pyrazin-2-yl}benzyl)amino]piperidine-2-carboxylate]
< 100	< 100	Cc1cc(-c2cnc(N)c(NCc3c(Cl)cccc3Cl)n2)ccc1CNC1CCN[C@@H](C(=O)OC2CCCC2)C1 (stereo partly drawn) [Example 19, Cyclopentyl (2R)-4-[(4-{5-amino-6-[(2,6-dichlorobenzyl)amino]pyrazin-2-yl}-2-methylbenzyl)amino]piperidine-2-carboxylate]
< 100	300 to 1000	CC(C)(C)OC(=O)[C@H]1CC(NCc2cccc(-c3cnc(N)c(NCc4c(Cl)cccc4Cl)n3)c2)CCN1 (stereo partly drawn) [Example 46, tert-Butyl (2R)-4-[(3-{5-amino-6-[(2,6-dichlorobenzyl)amino]pyrazin-2-yl}benzyl)amino]piperidine-2-carboxylate]
100 to 300	300 to 1000	Nc1ncc(-c2ccc(C(=O)N3CCNC(C(=O)OC4CCCC4)C3)cc2)nc1NCc1c(Cl)cccc1Cl (stereo not shown) [Example 3, Cyclopentyl 4-(4-{5-amino-6-[(2,6-dichlorobenzyl)amino]pyrazin-2-yl}benzoyl)piperazine-2-carboxylate]
300 to 1000	300 to 1000	CC(C)(C)OC(=O)C1CN(Cc2ccc(-c3cnc(N)c(NCc4c(Cl)cccc4Cl)n3)cc2)CCN1 (stereo not shown) [Example 23, tert-Butyl 4-(4-{5-amino-6-[(2,6-dichlorobenzyl)amino]pyrazin-2-yl}benzyl)piperazine-2-carboxylate]
> 5000	> 5000	CC(C)C[C@H](NCc1cccc(-c2cnc(N)c(NCc3c(Cl)cccc3Cl)n2)c1)C(=O)OC1CCCC1 [Example 38, Cyclopentyl N-(3-{5-amino-6-[(2,6-dichlorobenzyl)amino]pyrazin-2-yl}benzyl)-L-leucinate]
> 5000	> 5000	CC(C)(C)OC[C@H](NCc1cccc(-c2cnc(N)c(NCc3c(Cl)cccc3Cl)n2)c1)C(=O)OC1CCCC1 [Example 43, Cyclopentyl N-(3-{5-amino-6-[(2,6-dichlorobenzyl)amino]pyrazin-2-yl}benzyl)-O-tert-butyl-L-serinate]
< 100	300 to 1000	CC(C)(C)OC(=O)[C@@H]1CC(NCc2ccc(-c3cnc(N)c(NCc4c(Cl)cccc4Cl)n3)cc2)CCN1 (stereo partly drawn) [Example 22, tert-Butyl (2S)-4-[(4-{5-amino-6-[(2,6-dichlorobenzyl)amino]pyrazin-2-yl}benzyl)amino]piperidine-2-carboxylate]
100 to 300	300 to 1000	Nc1ncc(-c2cnn(CCNC3CCN[C@H](C(=O)OC4CCCC4)C3)c2)nc1NCc1c(Cl)cccc1Cl (stereo partly drawn) [Example 56, Cyclopentyl (2S)-4-{[2-(4-{5-amino-6-[(2,6-dichlorobenzyl)amino]pyrazin-2-yl}-1H-pyrazol-1-yl)ethyl]amino}piperidine-2-carboxylate di-formate]
< 100	100 to 300	Nc1ncc(-c2ccc(CNC3CCN[C@H](C(=O)OC4CCCC4)C3)cc2)nc1NCc1c(Cl)cccc1Cl (stereo partly drawn) [Example 8, Cyclopentyl (2S)-4-[(4-{5-amino-6-[(2,6-dichlorobenzyl)amino]pyrazin-2-yl}benzyl)amino]piperidine-2-carboxylate]
1000 to 5000	< 100	Nc1ncc(-c2ccc(CN3CCN[C@H](C(=O)OC4CCCC4)C3)cc2)nc1NCc1c(Cl)cccc1Cl [Example 10, Cyclopentyl (2S)-4-(4-{5-amino-6-[(2,6-dichlorobenzyl)amino]pyrazin-2-yl}benzyl)piperazine-2-carboxylate]
